Data set [1] concerns ventral prostate (VP). The method, then: Serum-free organ culture of P0 Wistar rat VPs was performed as previously described (Sugimura et al., 1996). […] The two-dimensional area and perimeter of organs was measured from live captured images using NIH Image software.
P0 VPs were grown in vitro for five days in the presence (+) or absence (−) of T and with (+) or without (−) 100 μg ml^−1 anti-SHH antibody (5E1) (FIG. 4A), after which their two-dimensional area was measured (FIG. 4B).
Effect of exogenous SHH on VP growth and branching. The effects of adding recombinant SHH to VPs grown in vitro was examined (FIG. 10). VPs were grown for 3 days −/+T and −/+recombinant SHH protein (n=6).

Data set [2] has as its system ventral prostate (VP). Briefly: Organ culture of P0 rat VPs: peripheral epithelial bud tips per unit perimeter. It counts as cell-based. Particulars: for mean bud tips per 1000 pixels perimeter: 3 days; for mean bud tips per unit perimeter: six days. The source says: We chose to analyse the effect of Cy on the prostatic epithelia of VPs grown in vitro. Epithelial bud tips situated at the periphery of VPs (total of 60 VPs from each of four treatment groups and 16 independent experiments) were counted and expressed as a ratio to organ perimeter, to account for the changes in organ size after treatments (FIG. 5C). The addition of Cy to organs cultured −T caused a significant increase in the number of peripheral tips per unit perimeter (−T=60.16±/−0.97 mean bud tips per unit perimeter versus −T +Cy=74.47+/−1.07; Student's t-test, P=1.31 e^−17). […] It is possible that the number of tips induced by T or Cy were the maximum for the in vitro system, thus additive effects may not be apparent due to the limitations of the system. […] An increase in peripheral tip number was also observed in VPs cultured with anti-SHH antibody (5E1) in the absence of T (−T=62.13+/−0.82 versus −T+5E1=93.03+/−1.08), with a similar peripheral tip number being observed between VPs cultured +T and +T+5E1 (+T=74.32+/−0.69 versus +T+5E1=79.21+/−1.28).
The number of peripheral bud tips from the cultured VPs was counted and expressed as a ratio to perimeter (FIG. 10C).

Data set [3] concerns ventral prostate (VP). Description: Organ culture of P0 rat VPs: BrdU incorporation, mitotic/proliferative index. It counts as cell-based. Particulars: for % proliferative nuclei, mesenchyme: day 2; for % proliferative nuclei, epithelium: day 3. As for the experimental part:
(§1) Anti-CK14 antibody was diluted at 1:100, and anti-p63 antibody (Santa Cruz Biotechnologies Inc., USA) was diluted at 1:500. […] Mitotic indices were calculated by counting the number of pan-cytokeratin-positive epithelial cells that were also BrdU-positive.
[…] […] The percentage of proliferating cells was scored from three images of the peripheral tips of the organs (distal), and three images of the ducts closest to the urethra (proximal), totalling 27 distal and proximal counts for each treatment group.
The proliferative index of the epithelial and mesenchymal cell compartments was calculated for VPs cultured −/+T and −/+SHH after the addition of BrdU (FIG. 10D).

For data set [4], the system named is Ptc transcripts. Briefly: RNase protection assay, VPs grown in vitro. It counts as cell-based, rat. Particulars: six days −/+T; or five days T then one day cyproterone acetate. The source says:
(§2) DNA templates for Shh and Ptc riboprobes were synthesised by RT-PCR from P0 UGT cDNA and subcloned into pBluescript KSII+ (Stratagene, USA). PCR primers were designed using GenBank-published cDNA sequences (Shh: GenBank Accession No. NM_017221; Primers: L—[…] (SEQ ID No 1), R—[…] (SEQ ID No 2); Ptc: GenBank Accession No. AF079162; Primers L—[…] (SEQ ID No 3), R—[…] (SEQ ID No 4)). DNA templates for Cyclophilin (Cphn) and 28S riboprobes were from Ambion, Inc., USA. ^32P-labelled anti-sense riboprobes were transcribed, and RNase protection assays performed as previously described in detail (Thomson et al., 1997). RNase protected products from Shh, Ptc, Cphn and 28S riboprobes were 269 nucleotides (nt), 322 nt, 103 nt and 155 nt respectively. Gels were imaged using a Storm phosphorimager (Molecular Dynamics, USA) and transcript abundance was determined from the intensities of bands, calculated using ImageQuant V.1.2 (Molecular Dynamics, USA).
(§3) RPAs were performed to analyse Shh and Ptc transcripts levels in VPs and URs grown in vitro. VPs were cultured for six days in the presence or absence of T; or for five days with T followed by a one-day treatment with the AR antagonist cyproterone acetate (FIG. 3B). […] Similarly, in short-term cultures of VPs (seven hours or three days), no changes in transcript levels were observed (data not shown).

Data set [5] deals with Shh transcripts. Briefly: RNase protection assay, VPs grown in vitro. Format: cell-based, rat. Particulars: six days −/+T; or five days T then one day cyproterone acetate.
Description: as §2, §3

In data set [6] the test system is ventral prostate (VP). Description: Organ culture of P0 rat VPs: histology (Masson's trichrome) and p63/CK14 immunohistochemistry. It counts as cell-based. Particulars: six days. The method, then: as §1
Prostatic ducts grow initially as solid cords, which then canalise, resulting in ducts that contain lumens. […] Normal prostatic ducts in rats consist of luminal secretory cells with underlying basal cells, forming a single lumen.

The next data set concerns UGS explants. Particulars: for prostatic buds: 7 days.
The test system of data set [7] is Shh transcripts. Particulars: explants cultured for three days; cited from earlier work.
The target in data set [8] is SONIC HEDGEHOG (SHH) protein, endogenous in cultured P0 Wistar rat ventral prostate (rat) (UniProt Q63673). Description: cell-based or functional assay.
Sequence of SONIC HEDGEHOG (SHH) protein, endogenous in cultured P0 Wistar rat ventral prostate (rat) (Q63673 25-198 limits assumed): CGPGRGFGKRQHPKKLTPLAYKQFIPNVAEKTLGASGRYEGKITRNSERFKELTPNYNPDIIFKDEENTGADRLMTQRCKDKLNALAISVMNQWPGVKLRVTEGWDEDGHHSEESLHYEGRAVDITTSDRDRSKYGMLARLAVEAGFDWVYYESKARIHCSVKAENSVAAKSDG
Data set [9] relates to Ptc transcripts. Description: RNase protection assay, female URs cultured three days. It counts as cell-based, rat. Particulars: three days −/+T (10^−8 M).
Description: as §2, §3

Data set [10] deals with Shh transcripts. The data set is described as above. It counts as cell-based, rat. Particulars: three days −/+T (10^−8 M).
Description: as §2, §3

“And” between values parts separate entries of the source, which are not always exact repeats. Equal values may be shown once. Read-outs that look alike come from different tables or passages of the source.

Description for UGS explants: As the prostate was not well developed in either mutant (FIG. 9B) or wildtype males at this stage, UGS explants from both Shh null mice and their littermates were grown in vitro to determine if prostatic budding could be induced (n=3).

With “SHH: recombinant SHH protein (Research Diagnostics, USA)”, the “% area (2D area relative to −T)” value in the data set with ventral prostate (VP) [1] (+T +SHH, 3 days) is given as 123.03+/−6.75%. The “effect on mesenchyme of cultured VPs” value in the data set on ventral prostate (VP) [1] (recombinant SHH, 3 days, both −/+T) is “expansion of the mesenchyme around the periphery of VPs”. Further, the figures for the “mean bud tips per 1000 pixels perimeter” value in the data set on ventral prostate (VP) [2] (+T +SHH) and in the data set with ventral prostate (VP) [2] (−T +SHH) were 68.34+/−2.57 bud tips per 1000 pixels perimeter and 48.0+/−3.35 bud tips per 1000 pixels perimeter, respectively. In addition, the “% proliferative nuclei, mesenchyme” value with ventral prostate (VP) [3] (+T+SHH) worked out at 20.47%+/−1.07%; in the data set with ventral prostate (VP) [3] (−T+SHH), 19.45%+/−1.12%. Moreover, the “% proliferative nuclei, epithelium” value is 30.46%+/−1.72% in the data set with ventral prostate (VP) [3] (+T+SHH) and 18.62%+/−2.06% in the data set with ventral prostate (VP) [3] (−T +SHH). Moreover, the “reduction of epithelial cell proliferation” value in the data set with ventral prostate (VP) [3] (VPs grown +T, not statistically significant) was 6%; in the data set on ventral prostate (VP) [3] (VPs grown −T), “a third”.

For the compound `CC(=O)O[C@]1(C(C)=O)CC[C@H]2[C@@H]3C=C(Cl)C4=CC(=O)[C@@H]5C[C@@H]5[C@]4(C)[C@H]3CC[C@@]21C` [cyproterone acetate], the Ptc transcript abundance entry in the data set with Ptc transcripts [4] was “No significant difference”. Further, in the data set with Shh transcripts [5], the Shh transcript abundance result is “No significant difference”.

Regarding `CC1=C2C[C@H]3[C@@H](CC=C4C[C@@H](O)CC[C@@]43C)[C@@H]2CC[C@]12O[C@@H]1C[C@H](C)CN[C@H]1[C@H]2C` [Cy, cyclopamine], in the data set with ventral prostate (VP) [1], the “effect on VP cultures” value was “little or no effect”, the “optimum concentration for growth inhibition” value is 1 µM and the “toxicity to VP organ cultures (organs dying prematurely)” value is listed as “toxic”. Moreover, the “mean bud tips per unit perimeter” value in the data set on ventral prostate (VP) [2] (+T +Cy) is given as 69.84+/−1.13 bud tips per unit perimeter. For the same compound, the “mean bud tips per unit perimeter” value in the data set with ventral prostate (VP) [2] (−T +Cy) is given as 74.47+/−1.07 bud tips per unit perimeter. Also, the “mitotic nuclei in distal epithelial tips” value in the data set with ventral prostate (VP) [3] is 13.48%+/−0.93% and 16.28%+/−0.74%. For the same compound, in the data set with ventral prostate (VP) [6] (+T +Cy), the CK14 expression result is “very few CK14-positive cells in distal tips”, the “canalisation (lumens) of prostatic ducts” value is recorded as “exhibited lumens in distal tips” and the p63 expression result is given as “confined to the basal cell layer of all distal tips”. Further, in the data set with ventral prostate (VP) [6] (−T +Cy), the “appearance of epithelial tips” value was “did not alter the appearance of epithelial tips”. In addition, in the data set on UGS explants (5 μM Cy), the toxicity to explants entry was “toxic and caused premature organ death”. Further, the toxicity to explants entry with UGS explants (10 μM Cy) is “toxic and caused premature organ death”. The prostatic buds result in the data set with UGS explants (+T +5 μM Cy) is “present”. The prostatic buds result in the data set on UGS explants (+T +10 μM Cy) was “present”.

For the compound `C[C@]12CCC(=O)C[C@@H]1CC[C@@H]1[C@@H]2CC[C@]2(C)[C@@H](O)CC[C@@H]12` [dihydrotestosterone], the “increase in Shh transcripts” value with Shh transcripts [7] was “five-fold”.

Regarding “anti-SHH antibody (clone 5E1, Developmental Studies Hybridoma Bank, University of Iowa)”, in data set [8], the decrease in growth of P0 rat ventral prostate in vitro (two-dimensional area, five days of culture, 100 ug/ml antibody) came to 20% and the decrease in testosterone-induced growth of rat ventral prostates in vitro came out at 50%.

Take `C[C@]12CC[C@H]3[C@@H](CCC4=CC(=O)CC[C@@]43C)[C@@H]1CC[C@@H]2O` [T, testosterone]: the “% area (2D area relative to −T)” value in the data set on ventral prostate (VP) [1] (+T alone (SHH experiments), 3 days) is given as 127.05+/−5.12%. In addition, the peripheral tip number in the data set with ventral prostate (VP) [2] (+T alone (5E1 experiments)) is on record as 74.32+/−0.69. For the same compound, the “mean bud tips per unit perimeter” value with ventral prostate (VP) [2] (+T alone (Cy experiments)) is recorded as 71.80+/−0.83 bud tips per unit perimeter. In addition, in the data set with ventral prostate (VP) [2] (+T alone (SHH experiments)), the “mean bud tips per 1000 pixels perimeter” value was 83.92+/−2.25 bud tips per 1000 pixels perimeter. In addition, the “mitotic nuclei in distal epithelial tips” value with ventral prostate (VP) [3] (+T alone (Cy experiments), day six) is 23.24%+/−1.86%. In the data set with ventral prostate (VP) [3] (+T alone (SHH experiments)), the “% proliferative nuclei, mesenchyme” value worked out at 17.81%+/−1.22% and the “% proliferative nuclei, epithelium” value amounted to 32.54%+/−1.65%. Besides, in the data set with ventral prostate (VP) [3] (response to T), the “proliferation in proximal ducts” value is recorded as “reduced”. Besides, the Ptc transcript abundance entry with Ptc transcripts [4] is “No significant difference”. Besides, the Shh transcript abundance result in the data set on Shh transcripts [5] is recorded as “No significant difference”. Besides, the “change in Ptc transcript levels” value with Ptc transcripts [9] is on record as “no significant change”. In the data set on Shh transcripts [10], the “upregulation of Shh transcripts” value is recorded as “two-and-a-half-fold”. In the data set with UGS explants (+T), the prostatic buds entry is on record as “present”.

The values above are taken from US20060094660A1, “Inhibitor of the shh signalling patway and a testosterone supressing agent for the treatment of cancer” (priority 2002, published 2006).
